Measured values taken from patent US7589185B2, “Nucleotide sequences and protein(s) encoded by such nucleotides for modulation of apoptosis” (Universita' degli Studi di Catanzaro “Magna Graecia”, priority 2001, dated 2009).

Columns and labels:
[1] = tested on: Air protein; experiment: Intracellular expression of Air protein in primary B-CLL cells, immunofluorescence flow cytometry; type: cell-based, human
Text: Presence of the Protein in primary ex vivo cells—We investigated whether our protein was present in primary ex vivo cells. (Procedures and conditions for isolation and culturing of primary cells are described in ref. 8-10). To this purpose, we first analysed three samples of B chronic lymphocytic leukemia (B-CLL) cells, since these cells can be considered a primary counterpart of the cell line that we initially studied. To detect the protein, we perform intracellular immuno-fluorescence experiments. 1−2×10^6 cells were fixed and permeabilised with 250 microl of Cytofix/Cytoperm (Pharmingen) solution, then incubated with the specific anti-Air rabbit polyclonal or a control rabbit antibody, followed by washing with Perm/Wash (Pharmingen) and a second incubation with fluorescein isothiocyanate (FITC)-conjugated goat anti-rabbit antibody. Then the cells were analysed with a FACScan (Becton Dickinson) flow cytometer. These experiments allowed to detect the presence of the protein in the three analysed B-CLL samples (FIGS. 7, 8 and 9).
FIG. 7—Intracellular expression of Air protein in cells from a patient affected by B-CLL. 2×10^6/ml cells obtained from patient's peripheral blood by centrifugation through Ficoll-Hypaque were incubated 24 h at 37° C. in a 5% CO2 atmosphere in the absence or presence of 2 mM DEM, fixed and permeabilised with 250 microl of Cytofix/Cytoperm (Pharmingen) solution. The cells were then incubated with the specific anti-Air rabbit polyclonal or a control rabbit antibody, followed by washing with Perm/Wash (Pharmingen) and a second incubation with fluorescein isothiocyanate (FITC)-conjugated goat anti-rabbit antibody. Then the cells were analysed with a FACScan (Becton Dickinson) flow cytometer. A panel: unstimulated cells. B panel: DEM-stimulated cells. Protein expression is detected in the 33.8% of the cells in basal conditions and in the 47.6% of the cells incubated with DEM.
FIG. 8—Intracellular expression of Air protein in cells from a patient affected by B-CLL. 2×10^6/ml cells obtained from patient's peripheral blood by centrifugation through Ficoll-Hypaque were incubated 24 h at 37° C. in a 5% CO2 atmosphere in the absence or presence of 2 mM DEM or 20 microM 2-Methoxymethylestradiol (2-ME), fixed and permeabilised with 250 microl of Cytofix/Cytoperm (Pharmingen) solution. The cells were then incubated with the specific anti-Air rabbit polyclonal or a control rabbit antibody, followed by washing with Perm/Wash (Pharmingen) and a second incubation with fluoresceinisothiocyanate (FITC)-conjugated goat anti-rabbit antibody. Then the cells were analysed with a FACScan (Becton Dickinson) flow cytometer. A panel: unstimulated cells. B panel: DEM-stimulated cells. C panel: cells stimulated with the drug 2-Methoxymethylestradiol (2-ME). Protein expression is detected in the 17.3% of the cells in basal conditions, in the 55.5% of DEM-stimulated cells and in the 53.1% of 2-ME-stimulated cells.
FIG. 9—Intracellular expression of Air protein in a patient affected by B-CLL. […] Then the cells were analysed with a FACScan (Becton Dickinson) flow cytometer. […] Protein expression is detected in the 27.2% of the cells in basal conditions, in the 28.3% of DEM-stimulated cells and in the 23.1% of 2-ME-stimulated cells.

[2] = tested on: SH-SY5Y neuroblastoma cells; experiment: Apoptosis of SH-SY5Y neuroblastoma cells induced by DEM, propidium iodide flow cytometry; type: cell-based, human; conditions: 2 or 6 mM DEM, oligonucleotides 7 microM, 12 or 16 h (FIGS. 3-6)

COCc1cc2c(cc1O)CC[C@@H]1[C@@H]2CC[C@]2(C)[C@@H](O)CC[C@@H]12 [2-ME, 2-Methoxymethylestradiol]
cells in which Air protein expression is detected ([1]; B-CLL patient of FIG. 8, 20 microM 2-ME, 24 h (basal 17.3%)): 53.1% | cells in which Air protein expression is detected ([1]; B-CLL patient of FIG. 9, 20 microM 2-ME, 24 h (basal 27.2%)): 23.1%

SEQ ID NO 8: antisense phosphorothioate oligonucleotide directed at blocking Air synthesis (CTTTCTATCTTCATTTTATTTTTCC; all phosphorothioate, sugars by position and methylation of C not given here)
modulation of apoptosis [2]: blocking it

CCOC(=O)/C=C\C(=O)OCC [DEM, diethylmaleate]
cells in which Air protein expression is detected ([1]; B-CLL patient of FIG. 7, 2 mM DEM, 24 h (basal 33.8%)): 47.6% | cells in which Air protein expression is detected ([1]; B-CLL patient of FIG. 8, 2 mM DEM, 24 h (basal 17.3%)): 55.5% | cells in which Air protein expression is detected ([1]; B-CLL patient of FIG. 9, 2 mM DEM, 24 h (basal 27.2%)): 28.3%

SEQ ID NO 7: antisense phosphorothioate oligonucleotide directed at blocking Air synthesis (ATCTTAGTCTTATACATTTTTTTAAA; all phosphorothioate, sugars by position and methylation of C not given here)
modulation of apoptosis [2]: blocking it

SEQ ID NO 6: antisense phosphorothioate oligonucleotide directed at blocking Air synthesis (CTTAGTCTTATACATTTTTTTAAAATC; all phosphorothioate, sugars by position and methylation of C not given here)
modulation of apoptosis [2]: blocking it
